Measurements: PubChem BioAssay AID1963849 (Molecular Pharmacology Branch, DTP, NCI, 2024)

Tested on: 299254-011-R-J1-PDC complex spheroid viability
Experiment: Anticancer human tumor 299254-011-R-J1-PDC patient-derived melanoma cell line growth inhibition [POLQ]
Settings: for IC50: curve of first compound; for viability, T/C: stronger effect = lower value
Summary of the method: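 PDC + HUVEC + MSC complex spheroids; POLQ inhibitors ± partner drugs; top conc. at/near clinical Cmax, else 10 microM (SN-38 1 microM), half-log dilutions; 37 degrees C, 5% CO2.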

[1] = second compound 0.0316 µM, first compound 0.0316 µM
[2] = second compound 0.0316 µM, first compound 0.1 µM
[3] = second compound 0.0316 µM, first compound 0.316 µM
[4] = second compound 0.0316 µM, first compound 1 µM
[5] = second compound 0.0316 µM, first compound 3.16 µM
[6] = second compound 0.0316 µM, first compound 10 µM
[7] = second compound 0.1 µM, first compound 0.0316 µM
[8] = second compound 0.1 µM, first compound 0.1 µM
[9] = second compound 0.1 µM, first compound 0.316 µM
[10] = second compound 0.1 µM, first compound 1 µM
[11] = second compound 0.1 µM, first compound 3.16 µM
[12] = second compound 0.1 µM, first compound 10 µM
[13] = second compound 0.316 µM, first compound 0.0316 µM
[14] = second compound 0.316 µM, first compound 0.1 µM
[15] = second compound 0.316 µM, first compound 0.316 µM
[16] = second compound 0.316 µM, first compound 1 µM
[17] = second compound 0.316 µM, first compound 3.16 µM
[18] = second compound 0.316 µM, first compound 10 µM
[19] = second compound 1 µM, first compound 0.0316 µM
[20] = second compound 1 µM, first compound 0.1 µM
[21] = second compound 1 µM, first compound 0.316 µM
[22] = second compound 1 µM, first compound 1 µM
[23] = second compound 1 µM, first compound 3.16 µM
[24] = second compound 1 µM, first compound 10 µM
[25] = second compound 3.16 µM, first compound 0.0316 µM
[26] = second compound 3.16 µM, first compound 0.1 µM
[27] = second compound 3.16 µM, first compound 0.316 µM
[28] = second compound 3.16 µM, first compound 1 µM
[29] = second compound 3.16 µM, first compound 3.16 µM
[30] = second compound 3.16 µM, first compound 10 µM
[31] = second compound 10 µM, first compound 0.0316 µM
[32] = second compound 10 µM, first compound 0.1 µM
[33] = second compound 10 µM, first compound 0.316 µM
[34] = second compound 10 µM, first compound 1 µM
[35] = second compound 10 µM, first compound 3.16 µM
[36] = second compound 10 µM, first compound 10 µM
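Also: spheroids exposed to drugs for one week before measurement.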
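For viability, T/C in this document: percent viability relative to DMSO vehicle control taken as 100%.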

COc1cc2cc(C(=O)CCC(=O)O)sc2cc1OC + Cc1cccc(N(C)C(=O)C2C(O)CCN2c2nc(C)cc(C(F)(F)F)c2C#N)c1
IC50 (second compound 0.0316 µM): > 10 µM | IC50 (second compound 0.1 µM): > 10 µM | IC50 (second compound 0.316 µM): > 10 µM | IC50 (second compound 1 µM): > 10 µM | IC50 (second compound 3.16 µM): > 10 µM | IC50 (second compound 10 µM): > 10 µM | viability, T/C [1]: 105% | viability, T/C [2]: 102% | viability, T/C [3]: 96.3% | viability, T/C [4]: 113% | viability, T/C [5]: 111% | viability, T/C [6]: 109% | viability, T/C [7]: 98.6% | viability, T/C [8]: 96% | viability, T/C [9]: 104% | viability, T/C [10]: 101% | viability, T/C [11]: 106% | viability, T/C [12]: 101% | viability, T/C [13]: 102% | viability, T/C [14]: 115% | viability, T/C [15]: 99.9% | viability, T/C [16]: 110% | viability, T/C [17]: 113% | viability, T/C [18]: 104% | viability, T/C [19]: 105% | viability, T/C [20]: 109% | viability, T/C [21]: 105% | viability, T/C [22]: 112% | viability, T/C [23]: 110% | viability, T/C [24]: 103% | viability, T/C [25]: 105% | viability, T/C [26]: 116% | viability, T/C [27]: 109% | viability, T/C [28]: 95% | viability, T/C [29]: 96.1% | viability, T/C [30]: 97.4% | viability, T/C [31]: 102% | viability, T/C [32]: 95.5% | viability, T/C [33]: 103% | viability, T/C [34]: 102% | viability, T/C [35]: 102% | viability, T/C [36]: 101%

CCc1cc2c(N3CCc4c(cc(Cn5ccnc5)cc4-c4cn(C)nc4C(F)(F)F)C3=O)cc(C)nc2c(OC)n1 + Nc1ccc(C#CCN(C(=O)Cc2ncc(C(F)(F)F)cc2C(F)(F)F)c2ccc(F)cc2)nn1
IC50 (second compound 0.0316 µM): > 10 µM | IC50 (second compound 0.1 µM): > 10 µM | IC50 (second compound 0.316 µM): > 10 µM | IC50 (second compound 1 µM): > 10 µM | IC50 (second compound 3.16 µM): > 10 µM | IC50 (second compound 10 µM): > 10 µM | viability, T/C [1]: 94.3% | viability, T/C [2]: 99.2% | viability, T/C [3]: 107% | viability, T/C [4]: 98.5% | viability, T/C [5]: 86.8% | viability, T/C [6]: 58.7% | viability, T/C [7]: 90.3% | viability, T/C [8]: 103% | viability, T/C [9]: 117% | viability, T/C [10]: 101% | viability, T/C [11]: 92.9% | viability, T/C [12]: 76.1% | viability, T/C [13]: 114% | viability, T/C [14]: 110% | viability, T/C [15]: 100% | viability, T/C [16]: 94.4% | viability, T/C [17]: 95% | viability, T/C [18]: 63.1% | viability, T/C [19]: 107% | viability, T/C [20]: 95.7% | viability, T/C [21]: 111% | viability, T/C [22]: 101% | viability, T/C [23]: 89.4% | viability, T/C [24]: 70.9% | viability, T/C [25]: 116% | viability, T/C [26]: 106% | viability, T/C [27]: 91.7% | viability, T/C [28]: 86.2% | viability, T/C [29]: 90.6% | viability, T/C [30]: 55.1% | viability, T/C [31]: 98.7% | viability, T/C [32]: 96.5% | viability, T/C [33]: 90.9% | viability, T/C [34]: 85.3% | viability, T/C [35]: 68% | viability, T/C [36]: 61.1%

CCc1cc2c(N3CCc4c(cc(Cn5ccnc5)cc4-c4cn(C)nc4C(F)(F)F)C3=O)cc(C)nc2c(OC)n1 + Cc1cccc(N(C)C(=O)C2C(O)CCN2c2nc(C)cc(C(F)(F)F)c2C#N)c1
IC50 (second compound 0.0316 µM): > 10 µM | IC50 (second compound 0.1 µM): > 10 µM | IC50 (second compound 0.316 µM): > 10 µM | IC50 (second compound 1 µM): > 10 µM | IC50 (second compound 3.16 µM): > 10 µM | IC50 (second compound 10 µM): > 10 µM | viability, T/C [1]: 96.3% | viability, T/C [2]: 92.5% | viability, T/C [3]: 96.6% | viability, T/C [4]: 104% | viability, T/C [5]: 94.8% | viability, T/C [6]: 61.3% | viability, T/C [7]: 109% | viability, T/C [8]: 109% | viability, T/C [9]: 90.3% | viability, T/C [10]: 94.8% | viability, T/C [11]: 80.9% | viability, T/C [12]: 71.3% | viability, T/C [13]: 108% | viability, T/C [14]: 115% | viability, T/C [15]: 121% | viability, T/C [16]: 106% | viability, T/C [17]: 87.9% | viability, T/C [18]: 65.3% | viability, T/C [19]: 105% | viability, T/C [20]: 100% | viability, T/C [21]: 99.7% | viability, T/C [22]: 90.2% | viability, T/C [23]: 88.3% | viability, T/C [24]: 58.5% | viability, T/C [25]: 117% | viability, T/C [26]: 98.3% | viability, T/C [27]: 95.3% | viability, T/C [28]: 84.5% | viability, T/C [29]: 80.2% | viability, T/C [30]: 70.2% | viability, T/C [31]: 109% | viability, T/C [32]: 117% | viability, T/C [33]: 106% | viability, T/C [34]: 82.2% | viability, T/C [35]: 77.8% | viability, T/C [36]: 58.6%

COc1cc2cc(C(=O)CCC(=O)O)sc2cc1OC + Nc1ccc(C#CCN(C(=O)Cc2ncc(C(F)(F)F)cc2C(F)(F)F)c2ccc(F)cc2)nn1
IC50 (second compound 0.0316 µM): > 10 µM | IC50 (second compound 0.1 µM): > 10 µM | IC50 (second compound 0.316 µM): > 10 µM | IC50 (second compound 1 µM): > 10 µM | IC50 (second compound 3.16 µM): > 10 µM | IC50 (second compound 10 µM): > 10 µM | viability, T/C [1]: 99% | viability, T/C [2]: 97.8% | viability, T/C [3]: 85.9% | viability, T/C [4]: 94% | viability, T/C [5]: 111% | viability, T/C [6]: 106% | viability, T/C [7]: 96.9% | viability, T/C [8]: 83.8% | viability, T/C [9]: 82.3% | viability, T/C [10]: 105% | viability, T/C [11]: 111% | viability, T/C [12]: 102% | viability, T/C [13]: 99.3% | viability, T/C [14]: 102% | viability, T/C [15]: 90.5% | viability, T/C [16]: 86.3% | viability, T/C [17]: 97.5% | viability, T/C [18]: 102% | viability, T/C [19]: 77.2% | viability, T/C [20]: 94.6% | viability, T/C [21]: 92.4% | viability, T/C [22]: 91.4% | viability, T/C [23]: 94.7% | viability, T/C [24]: 93.4% | viability, T/C [25]: 109% | viability, T/C [26]: 87.8% | viability, T/C [27]: 97.4% | viability, T/C [28]: 102% | viability, T/C [29]: 100% | viability, T/C [30]: 115% | viability, T/C [31]: 104% | viability, T/C [32]: 88% | viability, T/C [33]: 92.6% | viability, T/C [34]: 99.4% | viability, T/C [35]: 86.7% | viability, T/C [36]: 87.1%
